IC50 data for 28 compounds are collected here from patent US20220370453A1 (Storm Therapeutics Ltd, priority 2019, published 2022).

The IC50 is the concentration that gives 50% inhibition.

Assay [1] has as its target T1, BCDIN3D (Homo sapiens, UniProt Q7Z5W3).
T1 sequence (Q7Z5W3 1-292): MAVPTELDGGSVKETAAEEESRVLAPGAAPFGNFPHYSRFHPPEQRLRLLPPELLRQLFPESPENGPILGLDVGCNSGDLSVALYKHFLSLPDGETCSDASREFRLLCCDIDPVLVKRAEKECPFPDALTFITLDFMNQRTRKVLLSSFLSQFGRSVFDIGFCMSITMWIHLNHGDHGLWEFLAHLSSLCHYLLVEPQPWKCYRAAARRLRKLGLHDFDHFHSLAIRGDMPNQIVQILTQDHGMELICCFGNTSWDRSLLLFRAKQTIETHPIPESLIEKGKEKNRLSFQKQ
Nature of the assay: BCDIN3D InCellPulse thermal stability assay in transfected A549 cells. It counts as cell-based. As to conditions: transiently transfected A549 cells, heat shock 58° C. 15 min. In a few lines:
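A549 cells transiently expressing BCDIN3D N-terminally fused to ePL ProLabel tag, 1500 cells/well, pre-incubated 1 h at 37 °C with compound (0.6% DMSO). Heat shock 58 °C for 15 min; remaining soluble fusion detected by split β-galactosidase complementation luminescence.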

Assay [2] concerns the target T1, BCDIN3D. Nature of the assay: BCDIN3D IC50 RFMS (RapidFire) assay with mini-helix. As to conditions: mini-helix substrate 0.2 μM, SAM 6 μM, 25 nM enzyme. In kind it is biochemical. Put shortly: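 25 nM enzyme preincubated 10 min at room temperature with compound (1% DMSO) in 25 mM Tris pH 8.0, 10 mM DTT, 1 mM EDTA, 0.03% BSA. Reaction started with 0.2 μM mini-helix plus 6 μM SAM, run 1 h at 37 °C, quenched with TCA; SAH product quantified by RapidFire MS against isotopic SAH standards.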

In the case of `Cn1ncc2c(NCCC(F)(F)F)nc(NC[C@H](N)c3ccccc3)nc21` [Compound 4.114, N6-[(2R)-2-amino-2-phenyl-ethyl]-1-methyl-N4-(3,3,3-trifluoropropyl)pyrazolo[3,4-d]pyrimidine-4,6-diamine], the IC50 against BCDIN3D [1] came out at 1.56 µM; on BCDIN3D [2], 0.54 µM.

As to `Cn1ncc2c(NCC3CC3(Cl)Cl)nc(NC[C@H](N)c3ccccc3)nc21` (stereo partly drawn) [Compound 4.115, N6-[(2R)-2-amino-2-phenyl-ethyl]-N4-[(2,2-dichlorocyclopropyl)methyl]-1-methyl-pyrazolo[3,4-d]pyrimidine-4,6-diamine], the results for the IC50 against BCDIN3D [1] and against BCDIN3D [2] were 0.271 µM and 0.039 µM, respectively.

As to `Cn1ncc2c(NC3(C)CCCC3)nc(NC[C@H](N)c3ccccc3)nc21` [Compound 4.116, N6-[(2R)-2-amino-2-phenyl-ethyl]-1-methyl-N4-(1-methylcyclopentyl)pyrazolo[3,4-d]pyrimidine-4,6-diamine], the IC50 at BCDIN3D [1] was determined as 0.123 µM; at BCDIN3D [2], 0.151 µM.

For the compound `COC[C@@H](C)Nc1nc(NC[C@H](N)c2ccccc2)nc2c1cnn2C` [Compound 4.117, N6-[(2R)-2-amino-2-phenyl-ethyl]-N4-[(1R)-2-methoxy-1-methyl-ethyl]-1-methyl-pyrazolo[3,4-d]pyrimidine-4,6-diamine], the IC50 against BCDIN3D [1] stood at 0.608 µM; against BCDIN3D [2], 0.783 µM.

On to `Cn1ncc2c(NC(C)(C)C3CCOCC3)nc(NC[C@H](N)c3ccccc3)nc21` [Compound 4.118, N6-[(2R)-2-amino-2-phenyl-ethyl]-1-methyl-N4-(1-methyl-1-tetrahydropyran-4-yl-ethyl)pyrazolo[3,4-d]pyrimidine-4,6-diamine], for which the values for the IC50 against BCDIN3D [1] and against BCDIN3D [2] were 2.5 µM and 2.15 µM, respectively.

With `Cn1ncc2c(NC3CC4(CC4)C3)nc(NC[C@H](N)c3ccccc3)nc21` [Compound 4.119, 1-methyl-N6-[(2R)-2-amino-2-phenyl-ethyl]-N4-spiro[2.3]hexan-5-yl-pyrazolo[3,4-d]pyrimidine-4,6-diamine], the IC50 on BCDIN3D [1] is 0.027 µM; against BCDIN3D [2], 0.024 µM.

As for `Cn1ncc2c(NC3CC3(C)C)nc(NC[C@H](N)c3ccccc3)nc21` (stereo partly drawn) [Compound 4.120, N6-[(2R)-2-amino-2-phenyl-ethyl]-N4-(2,2-dimethylcyclopropyl)-1-methyl-pyrazolo[3,4-d]pyrimidine-4,6-diamine], the IC50 came to 1.45 µM at BCDIN3D [1] and 0.252 µM on BCDIN3D [2].

For `CC(C)(C)Nc1nc(NC[C@H](N)c2ccccc2)nc2c1cnn2C1CC1` [Compound 4.121, N6-[(2R)-2-amino-2-phenyl-ethyl]-N4-tert-butyl-1-cyclopropyl-pyrazolo[3,4-d]pyrimidine-4,6-diamine], the 50% inhibitory concentration (IC50) against BCDIN3D [1] stood at 4.81 µM; against BCDIN3D [2], 6.45 µM.

For `CC(C)[C@@H](C)Nc1nc(NC[C@H](N)c2ccccc2)nc2c1cnn2C` [Compound 4.122, N6-[(2R)-2-amino-2-phenylethyl]-1-methyl-N4-[(2R)-3-methylbutan-2-yl]-1H-pyrazolo[3,4-d]pyrimidine-4,6-diamine], the half-maximal inhibitory concentration (IC50) is 0.22 µM at BCDIN3D [1] and 0.12 µM on BCDIN3D [2].

As to `CC(C)[C@H](C)Nc1nc(NC[C@H](N)c2ccccc2)nc2c1cnn2C` [Compound 4.123, N6-[(2R)-2-amino-2-phenylethyl]-1-methyl-N4-[(2S)-3-methylbutan-2-yl]-1H-pyrazolo[3,4-d]pyrimidine-4,6-diamine], the half-inhibitory concentration (IC50) came out at 3.56 µM at BCDIN3D [1] and 1.41 µM against BCDIN3D [2].

Turning to `Cn1ncc2c(NC3CC4(CC(O)C4)C3)nc(NC[C@H](N)c3ccccc3)nc21` (stereo partly drawn) [Compound 4.124, 6-[(6-{[(2R)-2-amino-2-phenylethyl]amino}-1-methyl-1H-pyrazolo[3,4-d]pyrimidin-4-yl)amino]spiro[3.3]heptan-2-ol], the IC50 at BCDIN3D [1] turned out to be 0.57 µM; against BCDIN3D [2] it was 0.29 µM.

Turning to `Cn1ncc2c(NC3CCC(C(F)(F)F)CC3)nc(NC[C@H](N)c3ccccc3)nc21` (stereo partly drawn) [Compound 4.125, N6-[(2R)-2-amino-2-phenylethyl]-1-methyl-N4-[4-(trifluoromethyl)cyclohexyl]-1H-pyrazolo[3,4-d]pyrimidine-4,6-diamine], the half-maximal inhibitory concentration (IC50) on BCDIN3D [1] was 2.31 µM; against BCDIN3D [2] it was 0.45 µM.

On to `Cn1ncc2c(N[C@H]3CCC(F)(F)C3)nc(NC[C@H](N)c3ccccc3)nc21` [Compound 4.126, N6-[(2R)-2-amino-2-phenylethyl]-N4-[(1S)-3,3-difluorocyclopentyl]-1-methyl-1H-pyrazolo[3,4-d]pyrimidine-4,6-diamine], for which the 50% inhibitory concentration (IC50) against BCDIN3D [1] was found to be 0.58 µM; against BCDIN3D [2], 0.45 µM.

As for `Cn1ncc2c(NC3(C)CCOCC3)nc(NC[C@H](N)c3ccccc3)nc21` [Compound 4.127, N6-[(2R)-2-amino-2-phenylethyl]-1-methyl-N4-(4-methyloxan-4-yl)-1H-pyrazolo[3,4-d]pyrimidine-4,6-diamine], the 50% inhibitory concentration (IC50) came to 2.24 µM at BCDIN3D [1] and 6.77 µM against BCDIN3D [2].

As to `Cc1nn(C)c2nc(NC[C@H](N)c3ccccc3)nc(NC(C)(C)C)c12` [Compound 4.128, N6-[(2R)-2-amino-2-phenylethyl]-N4-tert-butyl-1,3-dimethyl-1H-pyrazolo[3,4-d]pyrimidine-4,6-diamine], the results for the concentration for half-maximal inhibition (IC50) at BCDIN3D [1] and against BCDIN3D [2] were 1.29 µM and 1.01 µM, respectively.

For `C[C@@H](Nc1nc(NC[C@H](N)c2ccccc2)nc2c1cnn2C)C1CC1` [Compound 4.129, N6-[(2R)-2-amino-2-phenylethyl]-N4-[(1R)-1-cyclopropylethyl]-1-methyl-1H-pyrazolo[3,4-d]pyrimidine-4,6-diamine], the IC50 at BCDIN3D [1] was 0.29 µM; on BCDIN3D [2], 0.18 µM.

`CC(C)Cc1nc(NCC(N)c2ccccc2)nc2c1cnn2C` (centres unmarked) [Compound 4.130, N2-[1-methyl-4-(2-methylpropyl)-1H-pyrazolo[3,4-d]pyrimidin-6-yl]-1-phenylethane-1,2-diamine]: the values for the IC50 at BCDIN3D [1] and at BCDIN3D [2] were 11.2 µM and 6.01 µM, respectively.

Consider `Cc1ccc(CNc2nc(NCC(N)c3ccccn3)nc3c2cnn3C)cc1Cl` (centres unmarked) [Compound 5.02], for which the half-inhibitory concentration (IC50) against BCDIN3D [1] is 0.944 µM; at BCDIN3D [2], 0.217 µM.

In the case of `Cn1ncc2c(Nc3ccc(C(F)(F)F)cc3)nc(NCC(N)c3ccccn3)nc21` (centres unmarked) [Compound 5.03, 6-N-(2-amino-2-pyridin-2-ylethyl)-1-methyl-4-N-[4-(trifluoromethyl)phenyl]pyrazolo[3,4-d]pyrimidine-4,6-diamine], the figures for the half-inhibitory concentration (IC50) on BCDIN3D [1] and at BCDIN3D [2] were 0.436 µM and 0.0894 µM, respectively.

In the case of `CNc1nc(NCC(N)c2cccc(C#N)c2)nc2c1cnn2C` (centres unmarked) [Compound 5.04, 3-[1-Amino-2-[[1-methyl-4-(methylamino)pyrazolo[3,4-d]pyrimidin-6-yl]amino]ethyl]benzonitrile], the figures for the 50% inhibitory concentration (IC50) against BCDIN3D [1] and on BCDIN3D [2] were 3.64 µM and 0.694 µM, respectively.

Regarding `C#Cc1cccc(C(N)CNc2nc(NC(C)(C)C)c3cnn(C)c3n2)c1` (centres unmarked) [Compound 5.05, N6-[2-Amino-2-(3-ethynylphenyl)ethyl]-N4-tert-butyl-1-methyl-pyrazolo[3,4-d]pyrimidine-4,6-diamine], the figures for the IC50 at BCDIN3D [1] and on BCDIN3D [2] were 0.0683 µM and 0.0518 µM, respectively.

In the case of `Cn1ncc2c(NC(C)(C)C)nc(NCC(N)c3ccccn3)nc21` (centres unmarked) [Compound 5.06, N6-[2-amino-2-(2-pyridyl)ethyl]-N4-tert-butyl-1-methyl-pyrazolo[3,4-d]pyrimidine-4,6-diamine], the half-inhibitory concentration (IC50) came out at 1.11 µM at BCDIN3D [1] and 1.1 µM against BCDIN3D [2].

For `Cc1ccc(CNc2nc(NCC(N)c3cccnc3)nc3c2cnn3C)cc1Cl` (centres unmarked) [Compound 5.07, 6-N-(2-amino-2-pyridin-3-ylethyl)-4-N-[(3-chloro-4-methylphenyl)methyl]-1-methylpyrazolo[3,4-d]pyrimidine-4,6-diamine], the values for the 50% inhibitory concentration (IC50) at BCDIN3D [1] and at BCDIN3D [2] were 0.882 µM and 0.135 µM, respectively.

`Cn1ncc2c(NC(C)(C)C)nc(NCC(N)c3cccnc3)nc21` (centres unmarked) [Compound 5.08, N6-[2-amino-2-(3-pyridyl)ethyl]-N4-tert-butyl-1-methyl-pyrazolo[3,4-d]pyrimidine-4,6-diamine]: the IC50 at BCDIN3D [1] is 1.17 µM; against BCDIN3D [2], 0.615 µM.

Take `Cn1ncc2c(Nc3ccc(C(F)(F)F)cc3)nc(NCC(N)c3ccccc3Cl)nc21` (centres unmarked) [Compound 5.09, 6-N-[2-amino-2-(2-chlorophenyl)ethyl]-1-methyl-4-N-[4-(trifluoromethyl)phenyl]pyrazolo[3,4-d]pyrimidine-4,6-diamine]: the IC50 against BCDIN3D [1] is 0.0559 µM; against BCDIN3D [2], 0.127 µM.

For `Cn1ncc2c(NC(C)(C)C)nc(NCC(N)c3ccccc3Cl)nc21` (centres unmarked) [Compound 5.10, N6-[2-amino-2-(2-chlorophenyl)ethyl]-N4-tert-butyl-1-methyl-pyrazolo[3,4-d]pyrimidine-4,6-diamine], the results for the IC50 at BCDIN3D [1] and against BCDIN3D [2] were 0.462 µM and 0.495 µM, respectively.

Consider `Cn1ncc2c(NC(C)(C)C)nc(NC[C@H](N)c3ccccc3Cl)nc21` [Compound 5.11, N6-[(2R)-2-amino-2-(2-chlorophenyl)ethyl]-N4-tert-butyl-1-methyl-pyrazolo[3,4-d]pyrimidine-4,6-diamine], for which the results for the IC50 against BCDIN3D [1] and against BCDIN3D [2] were 0.457 µM and 0.321 µM, respectively.

Take `Cc1ccc(CNc2nc(NCC(N)c3ccccc3F)nc3c2cnn3C)cc1Cl` (centres unmarked) [Compound 5.12, 6-N-[2-amino-2-(2-fluorophenyl)ethyl]-4-N-[(3-chloro-4-methylphenyl)methyl]-1-methylpyrazolo[3,4-d]pyrimidine-4,6-diamine]: the half-inhibitory concentration (IC50) against BCDIN3D [1] was found to be 0.643 µM; against BCDIN3D [2], 0.345 µM.
